Results: the NIST ThermoML archive (doi:10.1021/acs.jced.8b00132)
Where “and” joins values, the source holds several entries; their conditions need not be identical. Identical values can stand only once.

Settings: Gas

O=C(C(F)(F)C(F)(F)F)C(F)(C(F)(F)F)C(F)(F)F [dodecafluoro-2-methylpentan-3-one]
Settings	thermal conductivity
473.39 K, 1887 kPa, transient hot wire	0.02688 W/m/K
473.39 K, 22521 kPa, transient hot wire	0.05152 W/m/K
473.39 K, 49215 kPa, transient hot wire	0.06271 W/m/K
473.39 K, 49255 kPa, transient hot wire	0.06285 W/m/K
473.4 K, 22522 kPa, transient hot wire	0.05154 W/m/K
473.4 K, 33946 kPa, transient hot wire	0.05711 W/m/K
473.42 K, 7819 kPa, transient hot wire	0.04151 W/m/K
473.44 K, 47 kPa, hot wire	0.02441 W/m/K
473.44 K, 201 kPa, hot wire	0.0244 W/m/K
473.44 K, 7822 kPa, transient hot wire	0.0416 W/m/K
473.44 K, 49246 kPa, transient hot wire	0.06304 W/m/K
473.45 K, 47 kPa, hot wire	0.02432 W/m/K
473.45 K, 606 kPa, hot wire	0.02611 W/m/K
473.45 K, 49207 kPa, transient hot wire	0.06277 W/m/K
473.45 K, 49209 kPa, transient hot wire	0.06279 W/m/K
473.45 K, 49249 kPa, transient hot wire	0.06286 W/m/K
473.46 K, 202 kPa, hot wire	0.02416 W/m/K
473.46 K, 606 kPa, hot wire	0.02602 W/m/K
473.46 K, 1913 kPa, transient hot wire	0.0269 W/m/K
473.46 K, 10825 kPa, transient hot wire	0.04418 W/m/K
473.46 K, 10827 kPa, transient hot wire	0.04414 W/m/K
473.47 K, 33946 kPa, transient hot wire	0.05693 W/m/K
473.48 K, 419 kPa, hot wire	0.02531 W/m/K
473.48 K, 1914 kPa, transient hot wire	0.027 W/m/K
473.48 K, 22521 kPa, transient hot wire	0.05152 W/m/K
473.48 K, 33946 kPa, transient hot wire	0.05688 W/m/K
473.49 K, 418 kPa, hot wire	0.02526 W/m/K
473.49 K, 1887 kPa, transient hot wire	0.027 W/m/K
473.49 K, 15492 kPa, transient hot wire	0.04746 W/m/K
473.49 K, 49134 kPa, transient hot wire	0.06279 W/m/K
473.5 K, 1887 kPa, transient hot wire	0.02709 W/m/K
473.51 K, 1475 kPa, transient hot wire	0.02577 W/m/K
473.51 K, 49242 kPa, transient hot wire	0.0628 W/m/K
473.52 K, 1475 kPa, transient hot wire	0.02566 W/m/K
473.52 K, 7821 kPa, transient hot wire	0.04156 W/m/K
473.52 K, 7822 kPa, transient hot wire	0.04146 W/m/K
473.53 K, 10824 kPa, transient hot wire	0.04374 W/m/K
473.53 K, 49248 kPa, transient hot wire	0.06293 W/m/K
473.54 K, 46 kPa, hot wire	0.0245 W/m/K
473.54 K, 201 kPa, hot wire	0.02457 W/m/K
473.55 K, 201 kPa, hot wire	0.02434 W/m/K
473.55 K, 839 kPa, transient hot wire	0.02508 W/m/K
473.55 K, 10823 kPa, transient hot wire	0.0442 W/m/K
473.55 K, 22519 kPa, transient hot wire	0.05152 W/m/K
473.55 K, 33944 kPa, transient hot wire	0.05699 W/m/K
473.55 K, 33949 kPa, transient hot wire	0.05683 W/m/K
473.56 K, 46 kPa, hot wire	0.02434 W/m/K
473.56 K, 22522 kPa, transient hot wire	0.05162 W/m/K
473.57 K, 840 kPa, transient hot wire	0.02498 W/m/K
473.58 K, 1912 kPa, transient hot wire	0.02703 W/m/K and 0.02697 W/m/K
473.58 K, 15493 kPa, transient hot wire	0.04744 W/m/K
473.6 K, 604 kPa, transient hot wire	0.02513 W/m/K
473.6 K, 15489 kPa, transient hot wire	0.04749 W/m/K
473.61 K, 605 kPa, transient hot wire	0.02525 W/m/K
473.62 K, 33950 kPa, transient hot wire	0.05685 W/m/K
473.63 K, 10824 kPa, transient hot wire	0.04429 W/m/K
473.64 K, 10823 kPa, transient hot wire	0.04414 W/m/K
473.65 K, 1476 kPa, transient hot wire	0.02571 W/m/K
473.66 K, 1476 kPa, transient hot wire	0.02567 W/m/K
473.67 K, 429 kPa, transient hot wire	0.02546 W/m/K
473.67 K, 15488 kPa, transient hot wire	0.04746 W/m/K
473.67 K, 22520 kPa, transient hot wire	0.05153 W/m/K
473.68 K, 430 kPa, transient hot wire	0.02555 W/m/K
473.71 K, 842 kPa, transient hot wire	0.02515 W/m/K
473.71 K, 1912 kPa, transient hot wire	0.02721 W/m/K
473.71 K, 1913 kPa, transient hot wire	0.02727 W/m/K
473.71 K, 10824 kPa, transient hot wire	0.04392 W/m/K
473.72 K, 841 kPa, transient hot wire	0.02507 W/m/K
473.74 K, 10822 kPa, transient hot wire	0.04424 W/m/K
473.75 K, 22523 kPa, transient hot wire	0.05151 W/m/K and 0.05152 W/m/K
473.77 K, 607 kPa, transient hot wire	0.02516 W/m/K and 0.02531 W/m/K
473.77 K, 15488 kPa, transient hot wire	0.04755 W/m/K
473.78 K, 1476 kPa, transient hot wire	0.02572 W/m/K
473.78 K, 15486 kPa, transient hot wire	0.04744 W/m/K
473.79 K, 1476 kPa, transient hot wire	0.02574 W/m/K
473.81 K, 1914 kPa, transient hot wire	0.02747 W/m/K
473.81 K, 10823 kPa, transient hot wire	0.0442 W/m/K and 0.04427 W/m/K
473.82 K, 427 kPa, transient hot wire	0.02562 W/m/K
473.82 K, 428 kPa, transient hot wire	0.02569 W/m/K
473.82 K, 1914 kPa, transient hot wire	0.0274 W/m/K
473.85 K, 15487 kPa, transient hot wire	0.04761 W/m/K
473.87 K, 15485 kPa, transient hot wire	0.04754 W/m/K
473.88 K, 841 kPa, transient hot wire	0.02504 W/m/K
473.89 K, 841 kPa, transient hot wire	0.02504 W/m/K
473.94 K, 607 kPa, transient hot wire	0.02517 W/m/K
473.94 K, 608 kPa, transient hot wire	0.02532 W/m/K
473.94 K, 1476 kPa, transient hot wire	0.02574 W/m/K
473.96 K, 1476 kPa, transient hot wire	0.02582 W/m/K
473.98 K, 426 kPa, transient hot wire	0.02562 W/m/K
473.99 K, 423 kPa, transient hot wire	0.02558 W/m/K
474.04 K, 842 kPa, transient hot wire	0.02513 W/m/K and 0.02512 W/m/K
474.09 K, 607 kPa, transient hot wire	0.02539 W/m/K and 0.02526 W/m/K
474.16 K, 420 kPa, transient hot wire	0.02565 W/m/K
474.16 K, 421 kPa, transient hot wire	0.02567 W/m/K
474.19 K, 842 kPa, transient hot wire	0.02519 W/m/K
474.2 K, 841 kPa, transient hot wire	0.0252 W/m/K
474.27 K, 606 kPa, transient hot wire	0.02536 W/m/K
474.28 K, 606 kPa, transient hot wire	0.02535 W/m/K
474.31 K, 419 kPa, transient hot wire	0.02566 W/m/K
474.32 K, 419 kPa, transient hot wire	0.0257 W/m/K
499.37 K, 646 kPa, hot wire	0.02778 W/m/K
499.37 K, 647 kPa, hot wire	0.02768 W/m/K
499.4 K, 421 kPa, hot wire	0.02708 W/m/K
499.41 K, 221 kPa, hot wire	0.02654 W/m/K
499.41 K, 422 kPa, hot wire	0.0269 W/m/K
499.42 K, 220 kPa, hot wire	0.02629 W/m/K
499.45 K, 60 kPa, hot wire	0.02624 W/m/K
499.45 K, 645 kPa, hot wire	0.02749 W/m/K and 0.02782 W/m/K
499.47 K, 60 kPa, hot wire	0.02576 W/m/K
499.49 K, 419 kPa, hot wire	0.0267 W/m/K
499.5 K, 419 kPa, hot wire	0.02667 W/m/K
499.5 K, 50295 kPa, transient hot wire	0.06261 W/m/K
499.51 K, 219 kPa, hot wire	0.02641 W/m/K
499.51 K, 220 kPa, hot wire	0.02635 W/m/K
499.52 K, 4853 kPa, transient hot wire	0.03589 W/m/K and 0.03595 W/m/K
499.52 K, 50304 kPa, transient hot wire	0.06215 W/m/K
499.53 K, 644 kPa, hot wire	0.02758 W/m/K
499.53 K, 2128 kPa, transient hot wire	0.02828 W/m/K
499.54 K, 61 kPa, hot wire	0.02593 W/m/K
499.55 K, 61 kPa, hot wire	0.02598 W/m/K
499.55 K, 644 kPa, hot wire	0.02734 W/m/K
499.56 K, 419 kPa, hot wire	0.02715 W/m/K
499.56 K, 50302 kPa, transient hot wire	0.06239 W/m/K
499.57 K, 419 kPa, hot wire	0.02691 W/m/K
499.57 K, 4325 kPa, transient hot wire	0.0351 W/m/K
499.57 K, 50305 kPa, transient hot wire	0.06236 W/m/K
499.58 K, 3937 kPa, transient hot wire	0.03408 W/m/K
499.58 K, 4853 kPa, transient hot wire	0.03611 W/m/K
499.59 K, 50256 kPa, transient hot wire	0.06271 W/m/K
499.59 K, 50258 kPa, transient hot wire	0.06238 W/m/K
499.6 K, 218 kPa, hot wire	0.02625 W/m/K
499.6 K, 219 kPa, hot wire	0.0263 W/m/K
499.6 K, 3614 kPa, transient hot wire	0.03311 W/m/K
499.6 K, 4853 kPa, transient hot wire	0.036 W/m/K
499.61 K, 35693 kPa, transient hot wire	0.05695 W/m/K
499.61 K, 50280 kPa, transient hot wire	0.06265 W/m/K
499.62 K, 61 kPa, hot wire	0.02606 W/m/K and 0.02605 W/m/K
499.62 K, 5588 kPa, transient hot wire	0.03699 W/m/K
499.62 K, 35669 kPa, transient hot wire	0.057 W/m/K
499.62 K, 35696 kPa, transient hot wire	0.05672 W/m/K
499.63 K, 643 kPa, hot wire	0.02745 W/m/K
499.63 K, 3615 kPa, transient hot wire	0.03333 W/m/K
499.63 K, 4324 kPa, transient hot wire	0.03525 W/m/K
499.63 K, 5589 kPa, transient hot wire	0.03717 W/m/K
499.63 K, 35672 kPa, transient hot wire	0.05682 W/m/K
499.63 K, 50307 kPa, transient hot wire	0.06251 W/m/K
499.64 K, 644 kPa, hot wire	0.02725 W/m/K
499.64 K, 1595 kPa, transient hot wire	0.0274 W/m/K
499.64 K, 3289 kPa, transient hot wire	0.03215 W/m/K
499.64 K, 4325 kPa, transient hot wire	0.03518 W/m/K
499.64 K, 50259 kPa, transient hot wire	0.06245 W/m/K
499.65 K, 419 kPa, hot wire	0.02725 W/m/K
499.65 K, 1595 kPa, transient hot wire	0.02712 W/m/K
499.65 K, 2128 kPa, transient hot wire	0.02826 W/m/K and 0.0282 W/m/K
499.65 K, 4853 kPa, transient hot wire	0.03633 W/m/K
499.65 K, 4854 kPa, transient hot wire	0.03629 W/m/K
499.66 K, 418 kPa, hot wire	0.02719 W/m/K
499.66 K, 3937 kPa, transient hot wire	0.03435 W/m/K and 0.03413 W/m/K
499.67 K, 2953 kPa, transient hot wire	0.0308 W/m/K
499.67 K, 35694 kPa, transient hot wire	0.05685 W/m/K
499.68 K, 50260 kPa, transient hot wire	0.06229 W/m/K
499.69 K, 218 kPa, hot wire	0.02623 W/m/K and 0.0264 W/m/K
499.69 K, 5590 kPa, transient hot wire	0.03719 W/m/K
499.69 K, 35675 kPa, transient hot wire	0.05669 W/m/K
499.69 K, 35681 kPa, transient hot wire	0.05715 W/m/K
499.69 K, 50252 kPa, transient hot wire	0.06264 W/m/K
499.7 K, 60 kPa, hot wire	0.02639 W/m/K and 0.0261 W/m/K
499.7 K, 2953 kPa, transient hot wire	0.03112 W/m/K
